From US20070087977A1, “METHODS AND COMPOSITIONS FOR TREATING PAIN” (priority 2004, published 2007)
Where two headings read alike, the source gives them in different places.

Columns and labels:
[1] = tested on: mdr1a (P-gP) knockout mouse; settings: same doses, cited from earlier work
[2] = tested on: adult subjects with chronic pain; assay: Human study of the effects of oral quercetin (Q) and analgesics on sedation, concentration and pain; type: in vivo
Method: An empiric trial on the effects of oral quercetin (Q) on sedation, concentration, and pain was conducted. Inclusion criteria included ongoing pain of at least 4/10 on the Likert scale, poor tolerance of current analgesic regimen (complaints of sedation, dizziness, inability to focus), and willingness to complete daily diaries.
Approximately 16 adult subjects with chronic pain were screened and 9 subjects were admitted to the trial. Their pain disorders included peripheral neuropathy (2), facial pain (2), cervical radiculopathy (2), lumbar spine disease (3). Their pre-existing medications included short acting opioids (Vicodin TID, Tramadol 50 mg Q4-6), high dose, long acting opioids (OxyContin 240 mg, Methadone 400 mg), Gabapentin (900 mg and 2700 mg), Ativan, Flexeril, and Soma 350 mg. Seven of the subjects were using at least two analgesic medications. Two subjects were using no current medications because of prior histories of sedation and dizziness during opioid trials.
Q (Sigma) 500 mg per gel capsule was compounded and supplied to all subjects by overnight mail. Subjects were instructed to complete daily diaries for 7 days and continue their baseline medications and regular activities. On approximately the 7th day, they were asked to begin twice daily dosing of 2 Q (1000 mg) capsules (total daily dose of Q, 2000 mg). Diaries were completed for 7 days. Individual diaries included rating sleep interference, focus, pain now, and worst pain over the prior 24 hours. Subjects were instructed that concomitant pain medications should not be altered without speaking with the investigator. Subjects were advised that they would be contacted by telephone every day or every other day to assess progress in the trial and any side effects associated with the addition of Q. At the end of the trial, patients were interviewed. They were asked to rate their satisfaction with the study medication (−2-+2) and its ability to modulate the CNS effects of their pain medications.

[3] = tested on: Healthy subjects undergoing third molar removal; assay: Quercetin ameliorates CNS effects of oxycodone in an acute pain model (third molar removal); type: in vivo, human
Method: Opioids frequently produce adverse CNS side effects in ambulatory settings, providing a rationale for improving opioid analgesia by minimizing adverse effects. […] Healthy subjects (N=65) undergoing third molar removal are randomly allocated to receive 500 mg oral quercetin or matching placebo at 1 hr prior to surgery. […] Total Nausea and Vomiting Score (TNVS) is calculated for the time from dosing through 24 hr.

SMILES | sensitivity to fetal cleft palate ([1]; heterozygous (+/-) mice) | sensitivity to fetal cleft palate ([1]; homozygous (+/+) mice) | sleep rating (1 perfect sleep, 10 worst) ([2]; after taking Q, all patients, FIG. 5) | concentration rating (1 perfect concentration, 10 worst) ([2]; after taking Q, all patients, FIG. 6) | worst pain in the last 24 hrs (NPRS, 1 no pain, 10 worst) ([2]; after taking Q, all patients, FIG. 7) | pain at the time the patients were called (pain now) ([2]; after taking Q, all patients, FIG. 8) | global assessment (scale of -2 to 2) ([2]; all patients on opiate or MSD and modulator (Q), FIG. 15) | CNS activation noted ([2]; opioid users taking Q) | central withdrawal noted (number of opioid users) ([2]; opioid users taking Q) | number of patients reporting 2 in global assessment ([2]; scale of -2 to 2, FIG. 15) | number of patients reporting -2 in global assessment ([2]; scale of -2 to 2, FIG. 15) | pain on the scale from 1-10 (worst pain in last 24 hrs, pain at time of call) ([2]; two patients not on baseline meds, poor tolerance of systemic medications, FIGS. 13 and 14) | median time to request for a second analgesic ([3]; 500 mg oral quercetin + 10 mg oral oxycodone) [min] | mean pain intensity ([3]; 500 mg oral quercetin + 10 mg oral oxycodone, compared with placebo group) | oxycodone plasma concentrations, quercetin vs placebo group ([3]; prior to surgery, at 1 hr, at 4 hr)
CC[C@H](C)[C@H]1O[C@]2(C=C[C@@H]1C)C[C@@H]1C[C@@H](C/C=C(\C)[C@@H](O[C@H]3C[C@H](OC)[C@@H](O[C@H]4C[C@H](OC)[C@@H](O)[C@H](C)O4)[C@H](C)O3)[C@@H](C)/C=C/C=C3\CO[C@@H]4[C@H](O)C(C)=C[C@@H](C(=O)O1)[C@]34O)O2 [avermectin] | less sensitive | insensitive |  |  |  |  |  |  |  |  |  |  |  |  | 
O=c1c(O)c(-c2ccc(O)c(O)c2)oc2cc(O)cc(O)c12 [quercetin] |  |  | overall improvement | overall improvement | overall improvement | overall improvement | overall improvement in their condition | all the 4 opioid users | 3 | three | none | brought the pain down | 120 | consistently lower | do not differ
